Read-outs that look alike come from different tables or passages of the source.

Assay [1] concerns the target T1, Tel-TrkB (Homo sapiens, UniProt Q16620).
T1 construct: dimerization domain of Tel (ETV6) transcription factor (fusion partner, human ETV6 P41212); expressed in transfected cells; host or cells: luciferase expressing Ba/F3 murine hematopoietic progenitor cells; the other entry of the earlier key: ETV6 (P41212, Transcription factor ETV6)
Briefly: Inhibition of proliferation of Ba/F3 cells expressing Tel-TrkB (BaF3/Tel-TrkB). In kind it is cell-based. An outline of the steps:
(§1)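 Luciferase-expressing murine Ba/F3 cells transformed with human Tel-TrkA or Tel-TrkB, plated at 2000 cells/well in IL3-free RPMI/10% FBS. Exposed to 12 concentrations of 3-fold serially diluted compound for 48 hours at 37° C, 5% CO2. Bright Glo luminescence read-out, with IC50 from linear regression of percent inhibition.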

For assay [2], the system named is parental BaF3 cells. Briefly: Proliferation of parental (untransformed) Ba/F3 cells maintained with IL3. In kind it is cell-based, murine. The conditions noted are these: Mus musculus. Summed up:
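Untransformed murine Ba/F3 cells kept in RPMI/10% FCS with 5 ng/ml murine IL3, plated at 2000 cells/well and exposed to 12 concentrations of compound for 48 h at 37 °C. Viability read by Bright-Glo luciferase luminescence; IC50 from linear regression of % inhibition.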

In assay [3] the target is T2, Tel-TrkA (Homo sapiens, UniProt P04629).
T2 construct: dimerization domain of Tel (ETV6) transcription factor (fusion partner, human ETV6 P41212); expressed in transfected cells; host or cells: luciferase expressing Ba/F3 murine hematopoietic progenitor cells; the other entry of the earlier key: ETV6 (P41212, Transcription factor ETV6)
T2 sequence (P04629 510-796 limits assumed): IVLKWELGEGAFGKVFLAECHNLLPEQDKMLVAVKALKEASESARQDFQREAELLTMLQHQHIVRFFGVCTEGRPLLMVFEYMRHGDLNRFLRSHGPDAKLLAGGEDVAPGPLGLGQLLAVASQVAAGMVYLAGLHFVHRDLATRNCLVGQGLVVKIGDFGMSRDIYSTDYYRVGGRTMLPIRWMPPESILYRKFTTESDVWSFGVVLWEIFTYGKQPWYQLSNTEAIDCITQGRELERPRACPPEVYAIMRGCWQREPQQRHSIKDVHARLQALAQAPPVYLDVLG
Put plainly: Inhibition of proliferation of Ba/F3 cells expressing Tel-TrkA (BaF3/Tel-TrkA, luciferase/Bright Glo readout). The conditions noted are these: read-out: IC50 in BaF3/Tel-TrkA CTG cellular assay. In kind it is cell-based.

For assay [4], the target named is T3, full length rTrkA and mNGF (Rattus norvegicus, UniProt P35739).
T3 construct: co-expressing full length rTrkA and mNGF; expressed in transfected cells; host or cells: Ba/F3 cells
T3 sequence (P35739 33-799): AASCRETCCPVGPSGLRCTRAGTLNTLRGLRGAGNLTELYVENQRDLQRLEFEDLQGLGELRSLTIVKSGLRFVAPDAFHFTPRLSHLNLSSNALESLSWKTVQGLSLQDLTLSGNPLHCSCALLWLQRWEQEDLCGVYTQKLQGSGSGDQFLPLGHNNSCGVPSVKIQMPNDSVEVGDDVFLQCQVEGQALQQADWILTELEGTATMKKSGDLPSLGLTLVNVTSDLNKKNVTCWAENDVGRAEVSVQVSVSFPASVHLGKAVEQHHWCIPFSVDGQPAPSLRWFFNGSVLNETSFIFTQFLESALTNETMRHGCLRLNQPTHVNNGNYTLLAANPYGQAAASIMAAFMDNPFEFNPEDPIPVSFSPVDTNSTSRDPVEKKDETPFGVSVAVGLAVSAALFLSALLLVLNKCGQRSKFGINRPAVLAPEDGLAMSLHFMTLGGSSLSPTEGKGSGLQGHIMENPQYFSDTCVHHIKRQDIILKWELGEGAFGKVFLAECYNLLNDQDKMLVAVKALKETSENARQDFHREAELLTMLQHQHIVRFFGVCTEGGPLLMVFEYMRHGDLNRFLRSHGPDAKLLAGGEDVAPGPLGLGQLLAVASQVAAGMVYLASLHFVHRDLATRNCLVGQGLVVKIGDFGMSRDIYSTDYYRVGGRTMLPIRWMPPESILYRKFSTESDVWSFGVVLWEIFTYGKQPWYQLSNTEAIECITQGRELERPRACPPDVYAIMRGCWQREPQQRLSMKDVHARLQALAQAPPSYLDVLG
T3 sequence (P01139 122-241 partner): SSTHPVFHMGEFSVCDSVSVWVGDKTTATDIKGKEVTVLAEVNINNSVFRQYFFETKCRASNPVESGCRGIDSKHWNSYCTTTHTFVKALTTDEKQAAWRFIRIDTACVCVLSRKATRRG
Briefly: Inhibition of proliferation of Ba/F3 cells co-expressing full length rTrkA and mNGF (BaF3/TrkA-NFG). It counts as cell-based. The conditions noted are these: for IC50 in BaF3/TrkA-NFG CTG cellular assay: BaF3/TrkA-NFG cells; for BaF3 TRKA-NGF CTG IC 50: BaF3 TRKA-NGF cells, CTG readout.

Assay [5] relates to KM12 luc. Briefly: KM12 luc cell proliferation assay (Table 8). It counts as cell-based. The conditions noted are these: KM12 luc cells; read-out: KM12 luc IC 50.
Assay [6] has as its target T2, Tel-TrkA. Briefly: Inhibition of proliferation of Ba/F3 cells expressing Tel-TrkA (BaF3/Tel-TrkA, luciferase/Bright Glo readout). It counts as cell-based. Particulars: read-out: Ba/F3 Tel-TrkA IC 50. An outline of the steps:
as §1

In assay [7] the target is T4, Tel-TrkC (Homo sapiens, UniProt Q16288).
T4 construct: The cells also express luciferase as the viability read-out; it is not fused to the kinase; P41212 (Transcription factor ETV6)
T4 sequence (Q16288 whole entry, the tested form may be a part): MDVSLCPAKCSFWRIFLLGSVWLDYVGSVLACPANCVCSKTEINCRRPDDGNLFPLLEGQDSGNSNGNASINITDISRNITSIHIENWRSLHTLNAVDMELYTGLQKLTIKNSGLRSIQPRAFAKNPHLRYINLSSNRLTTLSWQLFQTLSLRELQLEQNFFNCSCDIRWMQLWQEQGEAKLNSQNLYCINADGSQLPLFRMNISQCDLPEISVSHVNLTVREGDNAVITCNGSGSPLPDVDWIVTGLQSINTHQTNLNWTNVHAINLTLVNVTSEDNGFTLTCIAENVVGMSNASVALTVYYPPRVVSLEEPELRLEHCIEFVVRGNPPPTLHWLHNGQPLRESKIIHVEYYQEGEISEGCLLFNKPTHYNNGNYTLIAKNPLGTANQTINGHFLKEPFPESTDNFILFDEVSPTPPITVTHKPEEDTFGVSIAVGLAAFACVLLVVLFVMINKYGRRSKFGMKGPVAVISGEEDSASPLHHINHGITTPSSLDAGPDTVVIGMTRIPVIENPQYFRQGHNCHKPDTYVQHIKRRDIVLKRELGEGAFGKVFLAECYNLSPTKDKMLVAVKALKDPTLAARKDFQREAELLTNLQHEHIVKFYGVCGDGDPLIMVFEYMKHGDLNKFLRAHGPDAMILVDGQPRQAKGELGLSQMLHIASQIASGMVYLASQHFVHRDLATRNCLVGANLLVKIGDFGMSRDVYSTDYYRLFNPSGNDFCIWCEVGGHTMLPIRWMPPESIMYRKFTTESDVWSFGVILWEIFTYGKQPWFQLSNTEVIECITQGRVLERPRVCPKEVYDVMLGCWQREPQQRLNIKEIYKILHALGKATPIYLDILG
Put plainly: Inhibition of proliferation of Ba/F3 cells expressing Tel-TrkC (BaF3/Tel-TrkC). It counts as cell-based. Particulars: read-out: Ba/F3 Tel-TrkC IC 50. The procedure: Test compounds were dissolved in DMSO (10 mM) and transferred into 1.4 mL flat bottom or V-shaped Matrix tubes carrying a unique 2D matrix chip by individual compound hubs. The numbers of these chips were distinctively linked to the individual compound identification numbers. The stock solutions were stored at −20° C. if not used immediately. For the test procedure the vials were defrosted and identified by a scanner whereby a working sheet is generated that guides the subsequent working steps.
Compound dilutions were made in 384 well plates. This format enabled the assay of maximally 28 individual test compounds at 12 concentrations (single points) including 2 reference compounds. The dilution protocol included the production of pre-dilution plates, master plates and assay plates: • Compound plates: 30 μL of individual compound (10 mM) DMSO solution including standard compound were transferred into columns 1 and 13 of a 384 well plate. 20 μL of DMSO were added to the rest of the wells and the compounds were serially diluted (1:3) by transferring 10 μL from a well in column 1 or 13 to the next well in column 2 or 14 respectively and successively with the help of a Minitrack robot. • Assay plates: Identical assay plates were then prepared by adding […] each of compound dilutions of the compound plates into 384-well “assay plates”. In the following the compounds were mixed with 50 μL of assays components (cells or enzyme) and tested for their inhibitory activity.
Compounds of Formula (I) were tested for their antiproliferative effect on Ba/F3 cells expressing either Tel-TrkA, Tel-TrkB or Tel-TrkC and an additional panel of 34 selected diverse kinases activated by fusion to the dimerizing partners Bcr or Tel (Abl, A1K, BMX, EphA3, EphB2, FGFR2, FGFR3, FGFR4, FGR, FLT1, FLT3, FLT4, FMS, IGF1R, InsR, JAK1, JAK2, JAK3, KDR, Kit, Lck, Lyn, MER, MET, PDGFRb, RET, RON, Ros-1, Src, Aurora, TIE2, TYK2, Tie1, ZAP70). The antiproliferative effect of these compounds on the different cell lines and on the non transformed cells were tested at 12 different concentrations of 3-fold serially diluted compounds in 384 well plates as described above (in media lacking IL3). The IC50 values of the compounds the different cell lines were determined from dose response curves.
The cell line used is the luciferase expressing Ba/F3 murine hematopoietic progenitor cell line transformed with human Tel-TrkA, Tel-TrkB or Tel-TrkC cDNAs (Ba/F3 EN A/B/C). These cells maintained in RPMI/10% fetal bovine serum (RPMI/FCS) supplemented with penicillin 50 mg/mL, streptomycin 50 mg/mL and L-glutamine […]. Untransformed Ba/F3 cells were similarly maintained with the addition 5 ng/ml of murine recombinant IL3. 50 μl of a Ba/F3 or Ba/F3 EN A/B/C cell suspension were plated in Greiner 384 well microplates (white)) at a density of 2000 cells per well. 50 nl of serially diluted test compound (10-0.0001 mM in DMSO solution) is added to each well. The cells were incubated for 48 hours at 37° C., 5% CO2. 25 μl of Bright Glo® (Promega) luciferase substrate is added to each well. The emited luminiscence is quantified using the ACQUEST™ luminescence system (Molecular Devices). IC50 values were calculated by linear regression analysis of the percentage inhibition of each compound at 12 concentrations.

[8] abbreviates: BaF3/Tel-TrkB cells, read-out: IC50 in BaF3/Tel-TrkB CTG cellular assay.
Setting [9] is: BaF3, parental BaF3 cells, read-out: IC50 in BaF3 CTG cellular assay.
Where [10] appears, read: Ba/F3 Tel-TrkB cells, read-out: Ba/F3 Tel-TrkB IC 50.
The mark [11] stands for this setting: BaF3, parental Ba/F3 cells, read-out: Ba/F3 IC 50.

T1 sequence (Q16620 538-822 limits assumed): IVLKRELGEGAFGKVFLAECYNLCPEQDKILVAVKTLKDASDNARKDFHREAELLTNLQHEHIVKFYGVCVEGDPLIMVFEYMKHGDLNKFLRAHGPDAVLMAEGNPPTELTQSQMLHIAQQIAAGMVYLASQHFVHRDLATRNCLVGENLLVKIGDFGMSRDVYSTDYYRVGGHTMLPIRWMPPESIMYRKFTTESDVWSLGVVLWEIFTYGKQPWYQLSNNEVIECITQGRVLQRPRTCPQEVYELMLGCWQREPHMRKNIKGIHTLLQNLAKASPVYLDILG

With `OC1CCN(c2cc(-c3cccc(-c4cnc5ccc(N6CCC[C@@H]6c6cccc(F)c6)nn45)n3)ccn2)CC1` [Compound 16-4, (R)-1-(6-(6-(2-(3-fluorophenyl)pyrrolidin-1-yl)imidazo[1,2-b]pyridazin-3-yl)-2,4′-bipyridin-2′-yl)piperidin-4-ol], the values for the IC50 in assay [1] (setting [8]), in assay [2] (setting [9]) and in assay [3] were 12 nM, 4410 nM and 5.2 nM, respectively. For the same compound, the “IC50 in BaF3/TrkA-NFG CTG cellular assay” value in assay [4] amounted to 13 nM.
As for `O[C@@H]1CCN(c2nccc(-c3cccc(-c4cnc5ccc(N6CCC[C@@H]6c6cccc(F)c6)nn45)n3)n2)C1` [Compound 14-4, (R)-1-(4-(6-(6-((R)-2-(3-fluorophenyl)pyrrolidin-1-yl)imidazo[1,2-b]pyridazin-3-yl)pyridin-2-yl)pyrimidin-2-yl)pyrrolidin-3-ol], the IC50 in assay [1] (setting [8]) came out at 3.3 nM; in assay [2] (setting [9]), 4070 nM; in assay [3] it was 2.2 nM. For the same compound, in assay [4], the “IC50 in BaF3/TrkA-NFG CTG cellular assay” value came out at 4.2 nM.
On to `Fc1cccc(C2CCCN2c2ccc3ncc(-c4ccc5[nH]ccc5c4)n3n2)c1` (centres unmarked) [Table 3-Compound 18], for which the IC50 in assay [1] (setting [10]) stood at 10 nM; in assay [5], 24 nM; in assay [6], 13 nM; in assay [2] (setting [11]) it was 7230 nM; in assay [7], 1.4 nM. The “BaF3 TRKA-NGF CTG IC 50” value in assay [4] worked out at 20 nM.
`CN(C)CCN(C)c1cc(-c2cnc3ccc(N4CCCC4c4cc(F)ccc4F)nn23)ccc1C#N` (centres unmarked) [Table 5-Compound 23]: the IC50 in assay [1] (setting [10]) was 74 nM; in assay [5] it was 109 nM; in assay [6] it was 136 nM; in assay [2] (setting [11]), 3710 nM; in assay [7], 16 nM. Further, in assay [4], the “BaF3 TRKA-NGF CTG IC 50” value was determined as 111 nM.
`CN1CCN(c2cnc(-c3cnc4ccc(N5CCCC5c5cccc(F)c5)nn34)cn2)CC1` (centres unmarked) [Table 3-Compound 7]: the IC50 in assay [1] (setting [10]) stood at 52 nM; in assay [5] it was 23 nM; in assay [6], 35 nM; in assay [2] (setting [11]) it was 5030 nM; in assay [7] it was 20 nM. Besides, the “BaF3 TRKA-NGF CTG IC 50” value in assay [4] was found to be 27 nM.
For `CN(C)c1ccc(-c2cnc3ccc(N4CCCC4c4cc(F)ccc4F)nn23)cc1C#N` (centres unmarked) [Table 5-Compound 4], the IC50 in assay [1] (setting [10]) worked out at 60 nM; in assay [5], 89 nM; in assay [6], 166 nM; in assay [2] (setting [11]), 5360 nM; in assay [7], 32 nM. The “BaF3 TRKA-NGF CTG IC 50” value in assay [4] amounted to 203 nM.
`N#Cc1cc(-c2cnc3ccc(N4CCCC4c4cc(F)ccc4F)nn23)ccc1F` (centres unmarked) [Table 5-Compound 1]: the IC50 in assay [1] (setting [10]) stood at 38 nM; in assay [5], 9.2 nM; in assay [6] it was 51 nM; in assay [2] (setting [11]), 7660 nM; in assay [7] it was 21 nM. Moreover, the “BaF3 TRKA-NGF CTG IC 50” value in assay [4] was 43 nM.
Turning to `Cc1ccc(C)c(C2CCCN2c2ccc3ncc(-c4cccc(C(=O)O)n4)n3n2)c1` (centres unmarked) [Table 3-Compound 1], the IC50 was 470 nM in assay [1] (setting [10]); 190 nM in assay [5]; 2310 nM in assay [6]; > 10000 nM in assay [2] (setting [11]); 240 nM in assay [7]. Further, the “BaF3 TRKA-NGF CTG IC 50” value in assay [4] came out at 1730 nM.
Consider `Fc1cccc([C@H]2CCCN2c2ccc3ncc(-c4cccc(N5CCN(c6cccnc6)CC5)n4)n3n2)c1` [Table 7-Compound 255], for which the IC50 is 17 nM in assay [1] (setting [10]); 6 nM in assay [5]; 9 nM in assay [6]; > 11000 nM in assay [2] (setting [11]); 3 nM in assay [7]. Moreover, the “BaF3 TRKA-NGF CTG IC 50” value in assay [4] was 9 nM.

(Values after US8507488B2, “Fused nitrogen containing heterocycles and compositions thereof as kinase inhibitors” (IRM LLC, priority 2008, dated 2013).)
